Data on 13 compounds can be found in patent publication US20210009564A1, “CALPAIN MODULATORS AND THERAPEUTIC USES THEREOF” (BLADE THERAPERTICS, INC., priority 2018, published 2021).

Test [1] deals with T1, Human Calpain 1/NS1 (Homo sapiens, UniProt P07384).
T1 sequence (P07384 1-714): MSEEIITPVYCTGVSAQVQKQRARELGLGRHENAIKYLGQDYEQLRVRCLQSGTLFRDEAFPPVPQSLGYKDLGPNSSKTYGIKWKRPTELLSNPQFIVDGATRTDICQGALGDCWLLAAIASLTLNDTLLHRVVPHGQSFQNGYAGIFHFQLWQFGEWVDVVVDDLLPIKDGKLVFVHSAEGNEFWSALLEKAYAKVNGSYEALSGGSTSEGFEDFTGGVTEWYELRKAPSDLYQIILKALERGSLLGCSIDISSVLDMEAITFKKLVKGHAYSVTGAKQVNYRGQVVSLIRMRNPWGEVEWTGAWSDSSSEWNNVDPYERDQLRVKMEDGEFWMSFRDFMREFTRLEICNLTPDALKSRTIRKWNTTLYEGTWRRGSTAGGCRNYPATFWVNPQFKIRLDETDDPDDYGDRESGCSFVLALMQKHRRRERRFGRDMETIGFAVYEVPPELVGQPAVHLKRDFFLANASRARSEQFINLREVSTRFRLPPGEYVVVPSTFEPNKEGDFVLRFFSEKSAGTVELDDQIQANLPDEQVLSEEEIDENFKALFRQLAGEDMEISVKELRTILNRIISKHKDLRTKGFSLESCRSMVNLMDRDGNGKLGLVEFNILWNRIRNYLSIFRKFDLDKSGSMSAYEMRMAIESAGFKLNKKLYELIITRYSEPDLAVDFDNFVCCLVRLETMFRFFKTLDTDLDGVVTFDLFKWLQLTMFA
T1 sequence (P04632 1-268 partner): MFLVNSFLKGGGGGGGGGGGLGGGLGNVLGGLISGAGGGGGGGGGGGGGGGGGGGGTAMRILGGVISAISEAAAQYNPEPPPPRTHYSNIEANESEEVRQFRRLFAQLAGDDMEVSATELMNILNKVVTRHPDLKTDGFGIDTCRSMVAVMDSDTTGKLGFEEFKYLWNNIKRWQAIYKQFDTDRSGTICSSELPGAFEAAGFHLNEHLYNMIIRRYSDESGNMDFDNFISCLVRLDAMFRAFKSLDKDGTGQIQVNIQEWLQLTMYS
Kind of test: Calpain inhibition, continuous fluorescence (FRET substrate) assay, calpain 1. In kind it is biochemical. The settings on record: SensoLyte 520 FRET substrate, 25C. In outline: (§1)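 Continuous FRET read-out (ex 490/em 520 nm) of 5-FAM/QXL 520 substrate cleavage, started by adding substrate with CaCl2 for in-situ activation after enzyme–inhibitor preincubation at 25 °C. Buffer was Tris 50 mM pH 7.5, NaCl 100 mM, DTT 1 mM. IC50 fitted (4-parameter) from rates over 1-5 min.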

In test [2] the test system is Calpain activity in SH-SY5Y cells. Kind of test: SH-SY5Y Suc-LLVY-AMC fluorescence assay. In kind it is cell-based. The note with it: Homo sapiens; SH-SY5Y cells, 100 uM Suc-LLVY-AMC; read-out: SH-SY5Y + AMC IC50.
For test [3], the target named is T2, Human Calpain 9/NS1 (Homo sapiens, UniProt O14815).
T2 sequence (O14815 1-690): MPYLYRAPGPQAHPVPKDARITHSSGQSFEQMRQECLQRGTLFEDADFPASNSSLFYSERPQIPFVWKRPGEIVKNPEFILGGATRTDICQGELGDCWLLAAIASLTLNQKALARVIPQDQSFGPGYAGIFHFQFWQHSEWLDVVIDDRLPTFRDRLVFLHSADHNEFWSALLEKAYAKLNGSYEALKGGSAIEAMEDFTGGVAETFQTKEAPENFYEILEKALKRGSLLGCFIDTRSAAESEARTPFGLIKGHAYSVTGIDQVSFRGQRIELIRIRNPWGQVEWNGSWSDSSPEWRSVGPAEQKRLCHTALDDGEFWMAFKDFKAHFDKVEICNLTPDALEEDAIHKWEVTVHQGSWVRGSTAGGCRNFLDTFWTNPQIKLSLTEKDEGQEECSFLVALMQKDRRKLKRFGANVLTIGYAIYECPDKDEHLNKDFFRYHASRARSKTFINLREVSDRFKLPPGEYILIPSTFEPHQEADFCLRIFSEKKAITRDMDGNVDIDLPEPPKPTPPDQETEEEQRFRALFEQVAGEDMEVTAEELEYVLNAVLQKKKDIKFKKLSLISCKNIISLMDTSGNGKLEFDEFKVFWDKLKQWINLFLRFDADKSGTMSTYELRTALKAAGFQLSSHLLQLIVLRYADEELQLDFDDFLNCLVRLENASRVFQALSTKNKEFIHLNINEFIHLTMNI
T2 sequence (P04632 1-268 partner): T1 sequence (P04632 1-268 partner)
The experiment in a line: Calpain inhibition, continuous fluorescence (FRET substrate) assay, calpain 9. In kind it is biochemical. The note with it: SensoLyte 520 FRET substrate, 25C. The gist of the method: as §1

The subject of test [4] is Calpain activity in SH-SY5Y cells. The experiment in a line: SH-SY5Y spectrin breakdown product (SBDP-150) western blot assay. In kind it is cell-based. The note with it: Homo sapiens; SH-SY5Y cells, 25 uM A23187, SBDP-150 western blot; read-out: SH-SY5Y Spectrin IC50.
The target of test [5] is T3, Human Calpain 2/NS1 (Homo sapiens, UniProt P17655).
T3 sequence (P17655 1-700): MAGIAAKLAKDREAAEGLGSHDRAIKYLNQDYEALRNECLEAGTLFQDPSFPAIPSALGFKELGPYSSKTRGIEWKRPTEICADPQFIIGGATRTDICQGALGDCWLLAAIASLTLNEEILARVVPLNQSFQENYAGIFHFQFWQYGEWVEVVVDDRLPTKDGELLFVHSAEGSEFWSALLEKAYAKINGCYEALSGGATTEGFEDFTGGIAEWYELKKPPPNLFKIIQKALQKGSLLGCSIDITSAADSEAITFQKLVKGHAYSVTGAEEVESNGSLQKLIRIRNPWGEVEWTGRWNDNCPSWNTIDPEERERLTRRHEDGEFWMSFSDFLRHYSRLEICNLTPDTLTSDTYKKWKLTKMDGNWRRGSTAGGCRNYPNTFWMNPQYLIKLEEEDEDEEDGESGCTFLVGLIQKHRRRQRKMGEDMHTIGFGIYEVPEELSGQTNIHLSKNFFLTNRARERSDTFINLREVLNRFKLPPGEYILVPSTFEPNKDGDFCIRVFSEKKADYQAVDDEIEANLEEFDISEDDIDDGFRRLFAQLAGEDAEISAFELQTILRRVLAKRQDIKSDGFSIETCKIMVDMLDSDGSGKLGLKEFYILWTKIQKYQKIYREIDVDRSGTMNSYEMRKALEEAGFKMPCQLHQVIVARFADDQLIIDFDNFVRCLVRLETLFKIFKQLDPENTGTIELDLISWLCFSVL
T3 sequence (P04632 1-268 partner): T1 sequence (P04632 1-268 partner)
The experiment in a line: Calpain inhibition, continuous fluorescence (FRET substrate) assay, calpain 2. In kind it is biochemical. The note with it: SensoLyte 520 FRET substrate, 25C. In outline:
as §1

For the compound `O=C(O)C(=O)C(Cc1ccccc1)NC(=O)c1nsnc1-c1ccccc1` (centres unmarked) [Compound 67, 2-OXO-4-PHENYL-3-(4-PHENYL-1,2,5-THIADIAZOLE-3-CARBOXAMIDO)BUTANOIC ACID], the IC50 in test [1] was under 3 µM; in test [2], under 10 µM; in test [3], under 3 µM; in test [4] it was under 10 µM; in test [5] it was under 3 µM.

For `Cn1cc(C(=O)NC(Cc2ccccc2)C(=O)C(N)=O)c(-c2cccc3ocnc23)n1` (centres unmarked) [Compound 68, N-(4-AMINO-3,4-DIOXO-1-PHENYLBUTAN-2-YL)-3-(BENZO[D]OXAZOL-4-YL)-1-METHYL-1H-PYRAZOLE-4-CARBOXAMIDE], the IC50 in test [1] was under 3 µM; in test [2], under 10 µM; in test [3] it was under 3 µM; in test [4], 10 to 25 µM; in test [5], under 3 µM.

Take `Cn1cc(C(=O)NC(Cc2ccccc2)C(=O)C(N)=O)c(-c2cccc3nn(C)cc23)n1` (centres unmarked) [Compound 69, N-(4-AMINO-3,4-DIOXO-1-PHENYLBUTAN-2-YL)-1-METHYL-3-(2-METHYL-2H-INDAZOL-4-YL)-1H-PYRAZOLE-4-CARBOXAMIDE]: the IC50 in test [1] is under 3 µM; in test [2] it was 10 to 25 µM; in test [3], under 3 µM; in test [4], 10 to 25 µM; in test [5], under 3 µM.

Regarding `NC(=O)C(=O)C(Cc1ccccc1)NC(=O)c1cn(C(F)F)nc1-c1cccc2scnc12` (centres unmarked) [Compound 70, N-(4-AMINO-3,4-DIOXO-1-PHENYLBUTAN-2-YL)-3-(BENZO[D]THIAZOL-4-YL)-1-(DIFLUOROMETHYL)-1H-PYRAZOLE-4-CARBOXAMIDE], the IC50 in test [1] is under 3 µM; in test [2] it was under 10 µM; in test [3] it was under 3 µM; in test [4], under 10 µM; in test [5], under 3 µM.

In the case of `NC(=O)C(=O)C(Cc1ccccc1)NC(=O)c1cn(C(F)F)nc1-c1cccc2ocnc12` (centres unmarked) [Compound 71, N-(4-AMINO-3,4-DIOXO-1-PHENYLBUTAN-2-YL)-3-(BENZO[D]OXAZOL-4-YL)-1-(DIFLUOROMETHYL)-1H-PYRAZOLE-4-CARBOXAMIDE], the IC50 in test [1] is under 3 µM; in test [2], under 10 µM; in test [3], under 3 µM; in test [4], under 10 µM; in test [5], under 3 µM.

Take `Cn1cc(C(=O)NC(Cc2ccccc2)C(=O)C(=O)O)c(-c2cccc(F)c2)n1` (centres unmarked) [Compound 72, 3-(3-(3-FLUOROPHENYL)-1-METHYL-1H-PYRAZOLE-4-CARBOXAMIDO)-2-OXO-4-PHENYLBUTANOIC ACID]: the IC50 in test [1] is under 3 µM; in test [2] it was under 10 µM; in test [3] it was under 3 µM; in test [4], over 25 µM; in test [5], under 3 µM.

As to `Cc1cc(-c2nc(C)oc2C(=O)NC(Cc2ccccc2)C(=O)C(N)=O)c(C)o1` (centres unmarked) [Compound 78, N-(4-AMINO-3,4-DIOXO-1-PHENYLBUTAN-2-YL)-4-(2,5-DIMETHYLFURAN-3-YL)-2-METHYLOXAZOLE-5-CARBOXAMIDE], the IC50 in test [1] was under 3 µM; in test [2], under 10 µM; in test [3], under 3 µM; in test [4], 10 to 25 µM; in test [5] it was under 3 µM.

As for `NC(=O)C(=O)C(Cc1ccccc1)NC(=O)c1nsnc1-c1ccoc1Cl` (centres unmarked) [Compound 79, N-(4-AMINO-3,4-DIOXO-1-PHENYLBUTAN-2-YL)-4-(2-CHLOROFURAN-3-YL)-1,2,5-THIADIAZOLE-3-CARBOXAMIDE], the 50% inhibitory concentration (IC50) was under 3 µM in test [1]; under 10 µM in test [2]; under 3 µM in test [3]; under 10 µM in test [4]; under 3 µM in test [5].

With `Cc1nc(-c2ccccc2F)c(C(=O)NC(Cc2ccccc2F)C(=O)C(N)=O)o1` (centres unmarked) [Compound 80, N-(4-AMINO-1-(2-FLUOROPHENYL)-3,4-DIOXOBUTAN-2-YL)-4-(2-FLUOROPHENYL)-2-METHYLOXAZOLE-5-CARBOXAMIDE], the IC50 in test [1] was under 3 µM; in test [2], under 10 µM; in test [3], under 3 µM; in test [4], under 10 µM; in test [5], under 3 µM.

With `Cc1nc(-c2cc(Cl)oc2Cl)c(C(=O)NC(Cc2ccccc2)C(=O)C(N)=O)o1` (centres unmarked) [Compound 81, N-(4-AMINO-3,4-DIOXO-1-PHENYLBUTAN-2-YL)-4-(2,5-DICHLOROFURAN-3-YL)-2-METHYLOXAZOLE-5-CARBOXAMIDE], the IC50 was under 3 µM in test [1]; under 10 µM in test [2]; under 3 µM in test [3]; 10 to 25 µM in test [4]; under 3 µM in test [5].

As to `N#CC(Cc1ccccc1)NC(=O)c1nsnc1-c1ccccc1` (centres unmarked) [Compound 82, N-(1-CYANO-2-PHENYLETHYL)-4-PHENYL-1,2,5-THIADIAZOLE-3-CARBOXAMIDE], the IC50 in test [1] was over 10 µM; in test [2], over 25 µM; in test [3], over 10 µM; in test [4], over 25 µM; in test [5] it was over 10 µM.

As for `Cc1nc(-c2ccccc2F)c(C(=O)NC(Cc2ccccc2Cl)C(=O)C(N)=O)o1` (centres unmarked) [Compound 83, N-(4-AMINO-1-(2-CHLOROPHENYL)-3,4-DIOXOBUTAN-2-YL)-4-(2-FLUOROPHENYL)-2-METHYLOXAZOLE-5-CARBOXAMIDE], the IC50 was under 3 µM in test [1]; under 10 µM in test [2]; under 3 µM in test [3]; over 25 µM in test [4]; under 3 µM in test [5].

On to `Cc1nc(-c2ccoc2C)c(C(=O)NC(Cc2ccccc2)C(=O)C(N)=O)o1` (centres unmarked) [Compound 84, N-(4-AMINO-3,4-DIOXO-1-PHENYLBUTAN-2-YL)-2-METHYL-4-(2-METHYLFURAN-3-YL)OXAZOLE-5-CARBOXAMIDE], for which the IC50 in test [1] was under 3 µM; in test [2], under 10 µM; in test [3], under 3 µM; in test [4], 10 to 25 µM; in test [5] it was under 3 µM.

Broadly, the IC50 is the concentration that gives 50% inhibition.
